Results taken from patent publication US10117854B2, “Method for treating hepatic encephalopathy” (MEDDAY PHARMACEUTICALS, priority 2016, dated 2018).
Like-named read-outs stand apart in the source and are kept apart here.

Key:
[1] = test system: BDL rats; test: Blood ammoniemia in bile duct ligated rats; type: in vivo, rat; settings: biotin 300 mg/kg of food (30 mg/kg BW/day), ANOVA p=0.01, FIG. 6
Protocol: Adult male Wistar rats (weight 175-200 g at the initiation of the surgical procedure) were obtained from the Janvier labs (Le Gesnest-Saint-Isle) and were used for the whole experiments.
Bile duct ligation (BDL) was used as a biliary cirrhosis model. All rats oh this group were operated on. They were randomly separated in two groups: BDL or simple laparotomy (SHAM, control-group). The BDL procedure was conducted as described previously (Kountouras J, Prolonged bile duct obstruction: a new experimental model for cirrhosis in the rat; Br J Exp Pathol 1984) and as controlled in our lab. Surgery was done under total anesthesia with inhalated isofluran (Aerrane, Baxter Maurepas) 3% mixed with air. Analgesia was done by sub-cutaneous injection of buprenorphin 2% (Buprécare 0.3 mg/ml, Axience) immediately before and after surgery.
(§1) The blood sample taken during the sacrifice was centrifuged and the plasma was used to determine the levels of hepatic transaminases, total and conjugated bilirubin and ammonia. Plasmatic cytokines (IL6, TNFa, IFNg) were determined by a multiplex commercial kit.

[2] = test system: BDL rats; test: Open Field Test (behavioral test of hepatic encephalopathy); type: in vivo, rat; settings: for OpenField test results compared with high-dose biotin: data not shown
Protocol: Bile duct ligation (BDL) was used as a biliary cirrhosis model. All rats oh this group were operated on. They were randomly separated in two groups: BDL or simple laparotomy (SHAM, control-group). The BDL procedure was conducted as described previously (Kountouras J, Prolonged bile duct obstruction: a new experimental model for cirrhosis in the rat; Br J Exp Pathol 1984) and as controlled in our lab. Surgery was done under total anesthesia with […] isofluran (Aerrane, Baxter Maurepas) 3% mixed with air. Analgesia was done by sub-cutaneous injection of buprenorphin 2% (Buprécare 0.3 mg/ml, Axience) immediately before and after surgery. Rifaximin (Sigma Aldrich) was mixed with water at the dose of 50 mg/kg/d and began 3 days after the surgery. […] To assess the hepatic encephalopathy, the Open Field Test (BioSeb) was used, a behavioral test validated in BDL rats to explore neurological impairments (Leke, Plos One 2012; 7(5)). The test was done the day of sacrifice, in standardized experimental conditions (hour, place, light, noise). Each rat was placed in a square 1 m^2 box and was free to explore the arena during 6 minutes. Two areas were defined in the square, center and periphery. Mobility parameters were registered by a three-dimensional camera. The data analyzed after 6 minutes of experiments were: total distance travelled (cm), time of mobility (s), speed (cm/s), number of zone changes, distance travelled in the center and periphery zone, time spent in the center and periphery zone, number of rearing, total duration of rearing.

[3] = test system: BDL rats
Protocol: The integrity of BBB was investigated by measuring the extravasation from intra-vascular compartment of dextran-Texas Red (Life Technologies) conjugated.
Six weeks after the surgery, all rats were anesthetized with inhaleted isofluran 3%. 0.75 ml of fluorochrome was injected in the femoral vein (Texas Red 10 kDa 10 mg/ml) and circulated during 6 minutes. […] To remove the intravascular localized dye, we did a large thoracotomy to perfuse 300 ml of cold PBS (40 ml/min with a peristaltic pump) through the left cardiac ventricle.
After decapitation, the brain was rapidly removed and the olfactory bulbs and brain stem eliminated with the cerebellum.
After grinding the right hemisphere by vigorously shaking and centrifugation, the amount of fluorescent dextran (μg/g) in supernatants was measured by fluorimetry (Tecan Infinite M200) at 620 nm upon excitation at 588 nm. The content of dye was valued by interpolation in standard curve.

[4] = test system: IFNγ; test: Plasmatic cytokines by multiplex kit; type: in vivo, rat; settings: BDL rats treated with biotin (300 mg/kg food)
Protocol: as §1

[5] = in vivo; cited from earlier work
[6] = test system: rats, acute liver failure induced by single high dose of CCl4; settings: prior art; biotin 0.5 mg/kg BW single intraperitoneal injection, or oral with uncontrolled amount; cited from earlier work

In the case of O=C(O)CCCC[C@@H]1SC[C@@H]2NC(=O)N[C@@H]21 [biotin], the “hyperammonemia (blood ammoniemia)” value [1] is reported as “reduce hyperammonemia”, the “neurological impairements observed in the OpenField test” value (“neurological impairements observed” below) ([2]; biotin 50 mg/kg of food (5 mg/kg of animal/day)) is reported as “not high enough to have an effect” and the “neurological impairements observed” value ([2]; biotin 300 mg/kg of food (30 mg/kg of animal/day), vs BDL rats without biotin) is reported as “reduced”. The “neurological impairements observed” value ([2]; biotin 300 mg/kg of food (30 mg/kg of animal/day), vs BDL rats without biotin, listed as Biotin) was “comportmental improvement”, the “intra-cerebral quantity of dextran (BBB permeability)” value (from here on “intra-cerebral quantity of dextran”) ([3]; BDL rats, biotin 300 mg/kg of food, vs BDL rats on control diet) was “normalize” and the “intra-cerebral quantity of dextran” value ([3]; BDL rats, biotin 300 mg/kg of food, vs BDL rats on control diet, listed as Biotin) was “normalization of BBB permeability”. The “intra-cerebral quantity of dextran” value ([3]; biotin 50 mg/kg of food) was “did not reach normalization”, the “IFNγ levels in plasma” value [4] was “decreased” and the plasma half life [5] was “about 2 hours”. The serum ammonium level [6] was “decrease the serum ammonium level”.

With CO[C@H]1/C=C/O[C@@]2(C)Oc3c(C)c(O)c4c(O)c(c5c(nc6cc(C)ccn65)c4c3C2=O)NC(=O)/C(C)=C\C=C\[C@H](C)[C@H](O)[C@@H](C)[C@@H](O)[C@@H](C)[C@H](OC(C)=O)[C@@H]1C [rifaximin, Rifaximin] the “OpenField test results compared with high-dose biotin” value ([2]; rifaximin 50 mg/kg/d in water) was “similar”.

In the case of O=C([O-])c1ccccc1.[Na+] [sodium benzoate, Sodium benzoate], the “OpenField test results compared with high-dose biotin” value ([2]; sodium benzoate 200 mg/kg/d in water) is reported as “similar”.
